From patent publication US5670538A, “Use of prodelphinidins for obtaining medicaments intended for the treatment of arthrosis” (Laboratoires Dolisos, priority 1992, dated 1997)
Like-named read-outs stand apart in the source and are kept apart here.

System: human articular chondrocytes
Assay: Radioimmunoassay of cartilaginous proteoglycans (PG) produced in tridimensional culture of human chondrocytes
Format: cell-based
Settings: for PG in the clusters over 12 days: 0-12 days
Text: The model used for testing the proanthocyanidols, namely the tridimensional culture of human chondrocytes allows chondrorepair to be quantified by the production of matrix substances: type II collagen, proteoglycans, and chondroresorption by the reduction in the levels of prostaglandin E2 and of OH° and O°2 type free radicals produced.
1. Tridimensional culture of human chondrocytes
The technique used has been described in detail (Bassleer et al., 1986).
Briefly, human articular chondrocytes are cultivated in DMEM (Dulbecco's Modification of Eagle's Medium--ICN--Gand, Belgium) with either Ultroser G 1% (GIBCO, Gand, Belgium) or 10% of foetal calf serum (ICN--Gand--Belgium), and 50 μg of ascorbic acid/ml added to it. The cartilage originates from the apparently normal zone of heads of human femur suffering from arthrosis, immediately after an operation carried out to insert a total hip prosthesis; it can also originate from the head of a healthy femur, but which has undergone a traumatism and has had to be replaced. This cartilage is then digested by clostridial collagenase 1 mg/ml (Boehringer-Mannheim, Germany) in a buffer (NaCl 120 mM, CaCl2 1 mM, KCl 5 mM, KH2 PO4 1 mM, NaHCO3 25 mM, glucose 2 mM and Hepes 30 mM, pH 7.4) for 24 hours. After 6 successive washings and centrifugations, the chondrocytes, isolated from their matrix, are cultured in flasks (10^6 cells/2 ml of culture medium) placed on a gyrator (10 rpm). The cultures are kept at 37° C. in an atmosphere of air 95%-CO2 5% (Bassleer et al., 1986). Cultivated under these conditions, after 4 to 5 days the chondrocytes form a tridimensional cluster in each flask. These clusters, which at first have a flocculent appearance, then tend to condense during the culture. After two weeks, their diameter is, in general, from 1 to 2 mm.
The fresh weight of the clusters increases with the duration of the culture, above all during the few first days.
2. Radioimmunoassay of cartilaginous proteoglycans (PG)
The PGs are measured with a radioimmunoassay (RIA) which is specific and sensitive to human cartilaginous PGs (Gysen et al. 1984). The PGs were extracted from human cartilage, according to the methods described by Roughley et al., (1981) and by Bayliss and Venn (1980). The antiserum against the cartilaginous PGs was obtained from the rabbit according to the technique of Vaitukaitis et al. (1971). The radioimmunoassay is carried out in a 0.4 ml volume consisting of 0.1 ml of tracer solution (15000 to 20000 cpm ^125 I-PG, labelled by the chloramine T method (Greenwood, 1973). 0.1 ml of anti-PG antiserum diluted to 1/5000 in phosphate-buffered saline (PBS-50 mM PO4, 150 mM NaCl ), containing BSA (5 g/l bovine serum albumin and 6.7 mM sodium azide) (incubation buffer) and 0.2 ml of several dilutions of the culture medium or of the cluster extract or also of the antigen (0.5 -500 ng/tube).
After four days at 4° C., the free PGs* (radioactive PGs) are separated from the PG*-antibody complexes by double precipitation (Franchimont et al., 1983).
The sensitivity of the assay is 0.6 ng/tube. The accuracy of measurement is of the order of 4%. The coefficients of the intra- and inter assay variation are less than 10% and 20% respectively.
The antibodies are directed against the antigenic determinants of the central protein of PG. There is a complete crossed reaction with human PGs of cartilage from the ribs, vertebral disks and trachea, even with PGs extracted from veins or arteries. There is no cross reaction with glycosaminoglycans or with PGs extracted from foetal tissues or the small PGs from bone.
The PGs are measured directly in the culture medium. As for the chondrocyte clusters, they are washed 3 times in a phosphate-buffered saline (PBS-50 mM PO4, 150 mM NaCl pH 7.4) containing protease inhibitors (Oegema et al., 1975:100 mM 6-aminohexanoic acid, 10 mM EDTA, 50 mM benzamidine hydrochloride, 5.10^-8 M trypsin inhibitor, 6.7 mM sodium azide and 200 U/ml superoxide dismutase). […]

Oc1cc(O)c2c(c1)O[C@H](c1cc(O)c(O)c(O)c1)[C@@H](O)[C@@H]2c1c(O)cc(O)c2c1O[C@H](c1cc(O)c(O)c(O)c1)[C@@H](O)C2 [Substance Ib, GC-(4 alpha→8) GC]
PG in the clusters over 12 days (1% Ultroser G, 1 μg/ml): 742 ± 62 ng/μg DNA | PG in the clusters over 12 days (1% Ultroser G, 10 μg/ml): 931 ± 24 ng/μg DNA | PG in the clusters over 12 days (1% Ultroser G, 100 μg/ml): 1108 ± 45 ng/μg DNA | Concentrations of PG in the clusters, effect in words (1% Ultroser G, 1 μg/ml): no significant effect | PGs released in the culture medium (1% Ultroser G, culture time 0-4 days, 1 μg/ml): 13.0 ± 1.22 μg/μg DNA/96 h | PGs released in the culture medium (1% Ultroser G, culture time 0-4 days, 10 μg/ml): 20.4 ± 3.0 μg/μg DNA/96 h | PGs released in the culture medium (1% Ultroser G, culture time 0-4 days, 100 μg/ml): 28.2 ± 2.92 μg/μg DNA/96 h | PGs released in the culture medium (1% Ultroser G, culture time 4-8 days, 1 μg/ml): 3.45 ± 0.56 μg/μg DNA/96 h | PGs released in the culture medium (1% Ultroser G, culture time 4-8 days, 10 μg/ml): 4.78 ± 0.56 μg/μg DNA/96 h | PGs released in the culture medium (1% Ultroser G, culture time 4-8 days, 100 μg/ml): 5.65 ± 0.24 μg/μg DNA/96 h | PGs released in the culture medium (1% Ultroser G, culture time 8-12 days, 1 μg/ml): 0.72 ± 0.08 μg/μg DNA/96 h | PGs released in the culture medium (1% Ultroser G, culture time 8-12 days, 10 μg/ml): 1.00 ± 0.12 μg/μg DNA/96 h | PGs released in the culture medium (1% Ultroser G, culture time 8-12 days, 100 μg/ml): 1.32 ± 0.01 μg/μg DNA/96 h | Proteoglycans released during the 12 days of culture, Abs (1% Ultroser G, cumulative, 1 μg/ml): 17.2 μg/μg DNA/12 days | Proteoglycans released during the 12 days of culture, Abs (1% Ultroser G, cumulative, 10 μg/ml): 26.3 μg/μg DNA/12 days | Proteoglycans released during the 12 days of culture, Abs (1% Ultroser G, cumulative, 100 μg/ml): 35.2 μg/μg DNA/12 days | activity at 1 µg/mL (Homo sapiens, Chondrocyte, 288 h, 1% Ultroser G, cumulative, 1 μg/ml, control = 100, read-out: Proteoglycans released during the 12 days of culture, %): 98% | activity at 10 µg/mL (Homo sapiens, Chondrocyte, 288 h, 1% Ultroser G, cumulative, 10 μg/ml, control = 100, read-out: Proteoglycans released during the 12 days of culture, %): 149% | activity at 100 µg/mL (Homo sapiens, Chondrocyte, 288 h, 1% Ultroser G, cumulative, 100 μg/ml, control = 100, read-out: Proteoglycans released during the 12 days of culture, %): 200% | activity at 10 µg/mL (Homo sapiens, Chondrocyte, foetal calf serum, Table 14, 0-4 days, 10 μg/ml, control = 100%, read-out: PG in the culture medium, % of control): 117% | activity at 100 µg/mL (Homo sapiens, Chondrocyte, foetal calf serum, Table 14, 0-4 days, 100 μg/ml, control = 100%, read-out: PG in the culture medium, % of control): 184% | activity at 10 µg/mL (Homo sapiens, Chondrocyte, foetal calf serum, Table 14, 4-8 days, 10 μg/ml, control = 100%, read-out: PG in the culture medium, % of control): 117% | activity at 100 µg/mL (Homo sapiens, Chondrocyte, foetal calf serum, Table 14, 4-8 days, 100 μg/ml, control = 100%, read-out: PG in the culture medium, % of control): 136% | activity at 10 µg/mL (Homo sapiens, Chondrocyte, foetal calf serum, Table 15, 0-4 days, 10 μg/ml, control = 100%, read-out: PG in the culture medium, % of control): 134% | activity at 100 µg/mL (Homo sapiens, Chondrocyte, foetal calf serum, Table 15, 0-4 days, 100 μg/ml, control = 100%, read-out: PG in the culture medium, % of control): 149% | activity at 10 µg/mL (Homo sapiens, Chondrocyte, foetal calf serum, Table 15, 4-8 days, 10 μg/ml, control = 100%, read-out: PG in the culture medium, % of control): 125% | activity at 100 µg/mL (Homo sapiens, Chondrocyte, foetal calf serum, Table 15, 4-8 days, 100 μg/ml, control = 100%, read-out: PG in the culture medium, % of control): 137% | activity at 10 µg/mL (Homo sapiens, Chondrocyte, foetal calf serum, Table 16, 0-8 days, 10 μg/ml, control = 100%, read-out: PG in the clusters over 8 days, % of control): 141% | activity at 100 µg/mL (Homo sapiens, Chondrocyte, foetal calf serum, Table 16, 0-8 days, 100 μg/ml, control = 100%, read-out: PG in the clusters over 8 days, % of control): 146% | activity at 10 µg/mL (Homo sapiens, Chondrocyte, foetal calf serum, Table 17, 0-8 days, 10 μg/ml, control = 100%, read-out: PG in the clusters over 8 days, % of control): 126% | activity at 100 µg/mL (Homo sapiens, Chondrocyte, foetal calf serum, Table 17, 0-8 days, 100 μg/ml, control = 100%, read-out: PG in the clusters over 8 days, % of control): 144% | PGs in the clusters, effect in words (foetal calf serum, 10 and 100 μg/ml): significantly increased | PG in the culture medium (foetal calf serum, Table 14, 0-4 days, 10 μg/ml): 7.6 ± 0.41 μg/μg DNA - 96 H | PG in the culture medium (foetal calf serum, Table 14, 0-4 days, 100 μg/ml): 11.9 ± 2.09 μg/μg DNA - 96 H | PG in the culture medium (foetal calf serum, Table 14, 4-8 days, 10 μg/ml): 2.32 ± 0.21 μg/μg DNA - 96 H | PG in the culture medium (foetal calf serum, Table 14, 4-8 days, 100 μg/ml): 2.71 ± 0.24 μg/μg DNA - 96 H | PG in the culture medium (foetal calf serum, Table 15, 0-4 days, 10 μg/ml): 7.1 ± 0.36 μg/μg DNA - 96 H | PG in the culture medium (foetal calf serum, Table 15, 0-4 days, 100 μg/ml): 7.9 ± 0.30 μg/μg DNA - 96 H | PG in the culture medium (foetal calf serum, Table 15, 4-8 days, 10 μg/ml): 2.1 ± 1.16 μg/μg DNA - 96 H | PG in the culture medium (foetal calf serum, Table 15, 4-8 days, 100 μg/ml): 2.3 ± 0.13 μg/μg DNA - 96 H | PG in the clusters over 8 days (foetal calf serum, Table 16, 0-8 days, 10 μg/ml): 1108 ± 166 ng/μg DNA | PG in the clusters over 8 days (foetal calf serum, Table 16, 0-8 days, 100 μg/ml): 1142 ± 110 ng/μg DNA | PG in the clusters over 8 days (foetal calf serum, Table 17, 0-8 days, 10 μg/ml): 724.0 ± 72.45 ng/μg DNA | PG in the clusters over 8 days (foetal calf serum, Table 17, 0-8 days, 100 μg/ml): 832.0 ± 59.10 ng/μg DNA
